# In patent publication US20060045953A1 (priority 2004, published 2006):
# Read-outs that look alike come from different tables or passages of the source.
# Target: T1, hT1R2/hT1R3 sweet receptor (Homo sapiens, UniProt Q7RTX0+Q8TE23)
# T1 construct: expressed in transfected cells; host or cells: HEK293 derivative stably expressing Gα15, clone S-9
# T1 sequence (Q8TE23 20-839): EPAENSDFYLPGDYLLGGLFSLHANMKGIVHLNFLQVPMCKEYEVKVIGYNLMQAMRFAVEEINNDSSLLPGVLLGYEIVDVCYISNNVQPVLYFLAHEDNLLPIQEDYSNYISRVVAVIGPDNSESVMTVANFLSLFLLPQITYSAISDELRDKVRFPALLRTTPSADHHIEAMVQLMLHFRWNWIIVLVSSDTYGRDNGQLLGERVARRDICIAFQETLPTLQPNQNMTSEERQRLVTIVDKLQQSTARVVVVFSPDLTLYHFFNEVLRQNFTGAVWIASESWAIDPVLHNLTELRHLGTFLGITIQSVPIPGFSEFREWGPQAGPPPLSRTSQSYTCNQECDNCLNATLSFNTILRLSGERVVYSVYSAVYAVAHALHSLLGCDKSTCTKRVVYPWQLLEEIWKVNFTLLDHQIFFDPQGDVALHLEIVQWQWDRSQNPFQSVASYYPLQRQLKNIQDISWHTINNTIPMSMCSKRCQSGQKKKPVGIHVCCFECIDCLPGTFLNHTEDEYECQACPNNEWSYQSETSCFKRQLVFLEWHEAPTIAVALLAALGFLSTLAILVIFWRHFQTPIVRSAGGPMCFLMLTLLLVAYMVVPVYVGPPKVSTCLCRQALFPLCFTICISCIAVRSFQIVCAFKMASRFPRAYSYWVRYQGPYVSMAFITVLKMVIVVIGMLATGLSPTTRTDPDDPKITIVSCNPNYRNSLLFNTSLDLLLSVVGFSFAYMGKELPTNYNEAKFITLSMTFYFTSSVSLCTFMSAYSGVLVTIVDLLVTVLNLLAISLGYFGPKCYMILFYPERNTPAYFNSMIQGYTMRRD
# T1 sequence (Q7RTX0 21-852): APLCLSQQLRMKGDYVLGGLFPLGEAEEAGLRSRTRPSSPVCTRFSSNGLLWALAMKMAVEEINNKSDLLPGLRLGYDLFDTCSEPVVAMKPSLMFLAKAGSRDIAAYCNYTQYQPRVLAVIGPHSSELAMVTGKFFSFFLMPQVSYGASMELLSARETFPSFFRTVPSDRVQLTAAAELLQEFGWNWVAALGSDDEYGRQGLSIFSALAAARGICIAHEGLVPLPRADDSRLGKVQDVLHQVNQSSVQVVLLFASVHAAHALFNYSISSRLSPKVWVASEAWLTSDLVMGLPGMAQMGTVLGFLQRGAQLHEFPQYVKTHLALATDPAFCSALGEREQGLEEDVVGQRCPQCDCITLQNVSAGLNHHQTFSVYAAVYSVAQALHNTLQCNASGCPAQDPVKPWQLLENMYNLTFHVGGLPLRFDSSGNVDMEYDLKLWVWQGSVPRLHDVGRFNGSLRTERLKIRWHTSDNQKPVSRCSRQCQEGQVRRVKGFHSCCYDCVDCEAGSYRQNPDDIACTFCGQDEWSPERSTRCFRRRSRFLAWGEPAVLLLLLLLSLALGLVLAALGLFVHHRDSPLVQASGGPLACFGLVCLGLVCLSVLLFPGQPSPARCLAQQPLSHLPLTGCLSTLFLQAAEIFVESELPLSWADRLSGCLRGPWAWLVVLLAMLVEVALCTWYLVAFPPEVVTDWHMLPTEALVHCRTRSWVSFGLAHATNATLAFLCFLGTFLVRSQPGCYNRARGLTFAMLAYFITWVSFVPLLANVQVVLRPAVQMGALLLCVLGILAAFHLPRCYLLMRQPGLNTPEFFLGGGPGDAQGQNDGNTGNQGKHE
# Experiment: In vitro hT1R2/hT1R3 sweet taste receptor activation assay (FLIPR, dose response)
# Type: cell-based
# Method in brief: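 Dose-response at 10 concentrations (60 nM–30 µM, duplicates) measured as Fluo-3AM calcium fluorescence on FLIPR in hT1R2/hT1R3 S-9 cells, in D-PBS at room temperature. Responses scaled to 400 mM D-fructose. EC50s from regression with all curve parameters floating.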
# [1] = Table E, Sweet Enhancer Amides, read-out: Sweet EC50
# [2] = read-out: EC50 for activation of a hT1R2/hT1R3 sweet receptor expressed in an HEK293 cell line
SMILES,EC50 [1],EC50 [2]
"CSc1nc(C)c(C(=O)Nc2ccccc2)c(C)c1C#N [Example E95, 5-Cyano-2,4-dimethyl-6-methylsulfanyl-N-phenyl-nicotinamide]",3.58 µM,–
"Cc1cc(Br)cc(C)c1NC(=O)N1Cc2ccccc2C1 [Example E99, N-(4-bromo-2,6-dimethylphenyl)isoindoline-2-carboxamide]",0.93 µM,–
"Cc1nocc1C(=O)NC1CCC(C)c2ccccc21 (stereo not drawn) [Example E11, 3-methyl-N-(4-methyl-1,2,3,4-tetrahydronaphthalen-1-yl)isoxazole-4-carboxamide]",2.46 µM,–
"Cc1ccc(C(=O)NC2CCC(C)CC2)c(O)c1 (stereo not drawn) [Example E67, 2-hydroxy-4-methyl-N-(4-methylcyclohexyl)benzamide]",2.98 µM,–
"O=C(NC1CCCc2ccccc21)c1c(Cl)cccc1Cl (stereo not drawn) [Example E15, 2,6-dichloro-N-(1,2,3,4-tetrahydronaphthalen-1-yl)benzamide]",3.02 µM,–
"CC1CCCCC1NC(=O)c1ccnc(F)c1 (stereo not drawn) [Example E65, 2-fluoro-N-(2-methylcyclohexyl)isonicotinamide]",2.83 µM,–
"Cc1cc([N+](=O)[O-])ccc1NC(=O)N1Cc2ccccc2C1 [Example E100, N-(2-methyl-4-nitrophenyl)isoindoline-2-carboxamide]",1.3 µM,–
"Cc1c(F)c(F)c(C(=O)NC2CCCCC2)c(F)c1F [Example E45, N-cyclohexyl-2,3,5,6-tetrafluoro-4-methylbenzamide]",1.13 µM,–
"Cc1cc(C)c(C(=O)NC2CCCC(C)C2C)c(C)c1 (stereo not drawn) [Example E50, N-(2,3-dimethylcyclohexyl)-2,4,6-trimethylbenzamide]",1.41 µM,–
"COc1cccc2c1CCC(C)C2NC(=O)c1cccc(Cl)c1O (stereo not drawn) [Example 186, 3-Chloro-2-hydroxy-N-(5-methoxy-2-methyl-1,2,3,4-tetrahydronaphthalen-1-yl)benzamide]",–,0.5 µM
"Cc1c(F)c(F)c(C(=O)NCC(C)C)c(F)c1F [Example E69, 2,3,5,6-tetrafluoro-N-isobutyl-4-methylbenzamide]",3.19 µM,–
"Cc1nocc1C(=O)NC1c2ccccc2CCC1C (stereo not drawn) [Example E6, 3-methyl-N-(2-methyl-1,2,3,4-tetrahydronaphthalen-1-yl)isoxazole-4-carboxamide]",1.48 µM,–
"COc1cc(F)c(NC(=O)N2Cc3cccc(C)c3C2)c(OC)c1 [Example E117, N-(2-fluoro-4,6-dimethoxyphenyl)-4-methylisoindoline-2-carboxamide]",0.09 µM,–
"CCCCc1nocc1C(=O)N[C@@H]1CCCc2c(OC)cccc21 [Example 189, (R)-3-Butyl-N-(5-methoxy-1,2,3,4-tetrahydronaphthalen-1-yl)isoxazole-4-carboxamide]",–,0.36 µM
"O=C(NC1CCCc2ccccc21)c1cccc(Cl)c1O (stereo not drawn) [Example E7, 3-chloro-2-hydroxy-N-(1,2,3,4-tetrahydronaphthalen-1-yl)benzamide]",1.81 µM,–
"O=C(N[C@@H]1CCOc2ccccc21)c1cccc(Cl)c1O [Example 185, (R)-3-Chloro-N-(3,4-dihydro-2H-chromen-4-yl)-2-hydroxybenzamide]",–,1.03 µM
"CCOc1c(F)c(F)c(C(=O)N[C@@H](C)C(C)C)c(F)c1F [Example E133, (S)-4-ethoxy-2,3,5,6-tetrafluoro-N-(3-methylbutan-2-yl)benzamide]",0.6 µM,–
"COc1c(Cl)cc(C(=O)Nc2ccccc2C)cc1Cl [Example E88, 3,5-dichloro-4-methoxy-N-o-tolylbenzamide]",1.84 µM,–
"Cc1cccc(C(=O)NC2CCCCC2C)c1C (stereo not drawn) [Example E63, 2,3-dimethyl-N-(2-methylcyclohexyl)benzamide]",2.6 µM,–
"O=C(N[C@@H]1CCCc2ccccc21)c1cccc(Cl)c1 [Example E22, (R)-3-chloro-N-(1,2,3,4-tetrahydronaphthalen-1-yl)benzamide]",4.52 µM,–

SMILES,EC50 [1],EC50 [2]
"Cc1cccc2c1CCC[C@H]2NC(=O)c1conc1C [Example 182, (R)-3-Methyl-N-(5-methyl-1,2,3,4-tetrahydronaphthalen-1-yl)isoxazole-4-carboxamide]",–,2.8 µM
"COc1c(Cl)ccc(Cl)c1C(=O)NC1CCCCC1C (stereo not drawn) [Example E37, 3,6-dichloro-2-methoxy-N-(2-methylcyclohexyl)benzamide]",0.77 µM,–
"O=C(Nc1ccc(F)cc1F)N1Cc2ccccc2C1 [Example E101, N-(2,4-difluorophenyl)isoindoline-2-carboxamide]",1.37 µM,–
"COc1c(Cl)cc(C(=O)Nc2ccc(C)cc2C)cc1Cl [Example E86, 3,5-dichloro-N-(2,4-dimethylphenyl)-4-methoxybenzamide]",1.48 µM,–
"COc1ccc(NC(=O)N2Cc3cccc(C)c3C2)c(F)c1 [Example E118, N-(2-fluoro-4-methoxyphenyl)-4-methylisoindoline-2-carboxamide]",0.1 µM,–
"CCOc1ccc(CCNC(=O)c2ccnn2C)cc1 [Example E83, N-(4-ethoxyphenethyl)-1-methyl-i H-pyrazole-5-carboxamide]",4.68 µM,–
"Cc1c(F)c(F)c(C(=O)N[C@@H]2CC3CCC2C3)c(F)c1F (stereo partly drawn) [Example E41, N-((2R)-bicyclo[2.2.1]heptan-2-yl)-2,3,5,6-tetrafluoro-4-methylbenzamide]",1.02 µM,–
"CC1CCC(NC(=O)c2ccc(F)c(C(F)(F)F)c2)CC1 (stereo not drawn) [Example E60, 4-fluoro-N-(4-methylcyclohexyl)-3-(trifluoromethyl)benzamide]",2.37 µM,–
"Cc1ccc(NC(=O)N2Cc3cccc(C)c3C2)c(C)c1 [Example E115, N-(2,4-dimethylphenyl)-4-methylisoindoline-2-carboxamide]",0.25 µM,–
"O=C(Nc1cccc2c1CCCC2)N1CCc2ccccc21 [Example E119, N-(5,6,7,8-tetrahydronaphthalen-1-yl)indoline 1-carboxamide]",1.06 µM,–
"Cc1c(Cl)cccc1NC(=O)N1CCc2ccccc2C1 [Example E112, N-(3-chloro-2-methylphenyl)-3,4-dihydroisoguinoline-2(1H)-carboxamide]",4.33 µM,–
"COc1cccc(C(=O)NC2CCC(C)CC2)c1O (stereo not drawn) [Example E72, 2-hydroxy-3-methoxy-N-(4-methylcyclohexyl)benzamide]",3.35 µM,–
"O=C(NC1CCc2ccccc21)c1cccc(Cl)c1O (stereo not drawn) [Example E51, 3-chloro-N-(2,3-dihydro-1H-inden-1-yl)-2-hydroxybenzamide]",1.49 µM,–
"O=C(N[C@@H]1CCCc2ccccc21)c1cccc(F)c1 [Example E23, (R)-3-fluoro-N-(1,2,3,4-tetrahydronaphthalen-1-yl)benzamide]",4.86 µM,–
"COc1cccc2c1CCC[C@H]2NC(=O)c1conc1C [Example 190, (R)-3-methyl-N-(5-methoxy-1,2,3,4-tetrahydronaphthalen-1-yl)isoxazole-4-carboxamide]",–,0.95 µM
"O=C(Nc1ccc(F)c(F)c1F)N1Cc2ccccc2C1 [Example E103, N-(2,3,4-trifluorophenyl)isoindoline-2-carboxamide]",2.58 µM,–
"CC1CCCC(NC(=O)c2ccnc(Cl)c2)C1C (stereo not drawn) [Example E44, 2-chloro-N-(2,3-dimethylcyclohexyl)isonicotinamide]",1.08 µM,–
"Cc1cc(C)c(C(=O)NC2CCCCC2C)c(C)c1 (stereo not drawn) [Example E36, 2,4,6-trunethyl-N-(2-methylcyclohexyl)benzamide]",0.72 µM,–
"O=C(Nc1ccc(Cl)cc1Cl)N1CCc2ccccc2C1 [Example E109, N-(2,4-dichlorophenyl)-3,4-dihydroisogumoline-2(1H)-carboxamide]",2.34 µM,–
